According to US10106778B2, “Selective targeting of cancer stem cells” (Whitehead Institute for Biomedical Research, priority 2012, dated 2018):

How the values were obtained:
[1] = system: p-B-Raf, p-c-Raf, p-MEK1/2 and p-ERK1/2; assay: Western blot of MAPK/ERK signaling in NAMECs; format: cell-based, human; conditions: 30 min
Protocol: (§1) To obtain protein extracts, cells were scraped from culture dishes in chilled PBS, centrifuged at 450×g for 4 min at 4° C., washed again in PBS, and incubated for 20 min in ice cold lysis buffer containing freshly added protease inhibitors (0.5 mM phenylmethylsulfonyl fluoride, 10 μg/ml leupeptin, 2 μg/ml aprotonin). Lysates were cleared by centrifugation at 12,100×g, 4° C. for 10 min and the supernatant was snap frozen in liquid nitrogen. Protein concentrations were determined using Bradford Dye (Bio-Rad). 30 μg total protein was separated by SDS-PAGE on NuPAge gels (Invitrogen), and transferred to Hybond-P PVDF membrane (GE Healthcare). The membrane was probed with specific primary antibodies and antibody-protein complex detected by HRP-conjugated antibodies and ECL-Plus (Amersham Biosciences).
We assessed whether mesenchymal cells contained higher Ras expression or activated Ras. […] We assessed whether enhanced ERK signaling in the mesenchymal cell state was primarily mediated through the activated PDGFR and PKCα signaling cascade, rather than through activation via a Ras-Raf pathway. To test this, we exposed NAMECs to PKCα-specific inhibitors for 30 min. This reduced p-B-Raf and p-c-Raf expression, and led to the loss of p-MEK1/2 and p-ERK1/2 (FIG. 5F). […] Therefore, the enhanced activity of ERK signaling during EMT was, in part, conferred by signaling through PDGFR and PKCα.

[2] = system: p-PKCα^S497 and p-PKCα^T638; assay: Western blot of PKCα phosphorylation in NAMECs; format: cell-based, human
Protocol: as §1
We subsequently sought to determine whether PKCα activation was directly dependent upon PDGFR-PLCγ. Exposure of NAMECs to a PLCγ inhibitor (U73122) reduced active p-PKCα^S497 and p-PKCα^T638 by 1.3 and 3.1-fold respectively within 30 min, and 6.3 and 4.2-fold respectively by 60 min (FIG. 13C); total PKCα level was unchanged (FIG. 13C). The inhibition of PDGFR in NAMECs, similarly, led to a loss of PKCα phosphorylation (p-PKCα^S497: 2.8 fold, p-PKCα^T638: 5.9 fold), as illustrated once again by the loss of active p-PKCα^S497 and p-PKCα^T638 within 30 min, while total PKCα remained constant (FIG. 13D).

p-FRA1^S265 = assay: Western blot of FRA1 phosphorylation in NAMECs; format: cell-based, human; conditions: for effect on phosphorylation of FRA1: applied to NAMECs for 30 min; for total FRA1: within 30 min of treatment
Protocol: as §1
FRA1 is a member of the Fos family of transcription factors, which is also comprised of c-Fos, FosB and Fra2. Together with the Jun family of transcription factors composed of c-Jun, JunB and JunD, individual members of the Fos and Jun family associate with one another to form heterodimeric activator protein-1 (AP-1) complexes that bind and transcriptionally regulate target gene expression when phosphorylated (Eferl and Wagner, 2003).
We assessed whether the observed increased p-FRA1 activity in the mesenchymal cells could be further augmented by elevated ERK signaling during EMT. Accordingly, inhibition of ERK1/2 phosphorylation with a MEK inhibitor was able to decrease p-FRA1^S265 levels by 65% but not the levels of total FRA1 or p-c-Jun (FIG. 5G), confirming that ERK1/2 signaling promoted p-FRA1 activity.

[3] = system: NAMEC-Tom-Ras and HMLE-GFP-Ras cells; assay: Co-mixed NAMEC-Tom-Ras (CSC-enriched) and HMLE-GFP-Ras (CSC-depleted) cells, kinase inhibition, FACS; format: cell-based, human; conditions: for which cell type is more sensitive / selected against: dose response, co-mixed cells; for resistance of NAMEC-Tom-Ras cells relative to HMLE-GFP-Ras cells: at LC50, co-mixed cells
Protocol: (§2) Kinase inhibitors and other chemical compounds were obtained from various sources listed below. These were dissolved or diluted in DMSO. To set up the screen, 75,000 NAMEC-Tom and 15,000 HMLE-GFP cells were seeded into each well of a 6-well tissue culture plate. The following day, spent media was replaced with 3 ml of fresh media. Inhibitors were added to achieve the desired range of concentrations. For control treatment, DMSO was added. Fresh media containing inhibitors were replaced daily during the six day period. For analysis, cells were trypsinized with 1 ml 0.15% trypsin, diluted with 1 ml serum-containing media and fixed with 1 ml of 4% paraformaldehyde. FACS analysis was performed to analyze the proportion of surviving cells relative to DMSO-treated control for NAMEC-Tom or HMLE-GFP cells. To test the effects of these inhibitors on CSCs and non-CSCs, NAMEC-Ras-Tom and […] were used in similar co-mixed experiments.
as §2, with “experiments. To assess the fraction of cells undergoing apoptosis, cells were exposure to agents for three days without fresh media and then analyzed with Annexin V-APC (BD Biosciences).” for “experiments.”
Having determined that NAMEC-Ras cells were enriched for CSCs, we mixed NAMEC-Ras cells labeled with tdTomato (NAMEC-Tom-Ras) and HMLE-Ras cells labeled with GFP (HMLE-GFP-Ras) and re-tested the effects of kinase inhibition as described above. […] In addition, these NAMEC-Tom-Ras cells were more resistant to paclitaxel (11.3 fold) and staurosporine (32.8 fold) than the corresponding HMLE-GFP-Ras cells used as controls (FIG. 3C).

[4] = system: NAMEC-Tom and HMLE-GFP cells; assay: Kinase inhibitor screen: co-mixed NAMEC-Tom and HMLE-GFP cells, six days of inhibitor, FACS; format: cell-based, human; conditions: six days of inhibitor treatment, FACS relative to DMSO
Protocol: as §2
as §2, with “experiments. To assess the fraction of cells undergoing apoptosis, cells were exposure to agents for three days without fresh media and then analyzed with Annexin V-APC (BD Biosciences).” for “experiments.”
We undertook to identify kinase inhibitors that selectively targeted mesenchymal-like cells including those with stem cell properties. To do so, we established a screen that measured the ability of candidate inhibitors to preferentially deplete NAMECs but not parental HMLE cells from cell cultures. Thus, we labeled NAMECs with the tdTomato red fluorescent protein (NAMEC-Tom) and the HMLE cells with the GFP green fluorescent protein (HMLE-GFP); we then attempted to reconstitute certain stem cell and non-stem cell interactions that might operate in vivo by mixing the two cell populations in 6-well adherent tissue culture plates. One day later, we challenged these cultures with a variety of kinase inhibitors (FIG. 2A).
The robustness of this screen, designed to identify mesenchymal cell-specific inhibitors, was enhanced by seeding NAMEC-Tom and HMLE-GFP cells in a 5:1 ratio. While NAMEC-Tom cells, like others that have passed through an EMT, proliferated marginally more slowly than their epithelial counterparts in culture, their initial advantage in seeding density was compensated over the course of the six day-long assays by the more rapid proliferation of the HMLE-GFP cells (FIG. 11). After six days of treatment, the relative proportions of NAMEC-Tom and HMLE-GFP cells were quantified with fluorescent-activated cell sorting (FACS) to determine the selective effects, if any, of these various inhibitors (FIG. 2A).

NAMECs = assay: Cellular plasticity of NAMECs: differentiation by PGE2 blockade and inhibitor sensitivity; format: cell-based, human; conditions: for sensitivity of GW-treated (differentiated) NAMECs: after differentiation with GW627368; for sensitivity of NAMECs relative to parental HMLE cells: undifferentiated NAMECs
Source text: NAMECs are phenotypically plastic and can transit between the epithelial and mesenchymal cell state. The cells relied on autocrinal PGE2 signaling for maintenance of the mesenchymal state.

HMLE-GFP cells = assay: Annexin V apoptosis in co-mixed culture, HMLE-GFP gate; format: cell-based, human; conditions: co-mixed cells treated for three days
Protocol: as §2, with “experiments. To assess the fraction of cells undergoing apoptosis, cells were exposure to agents for three days without fresh media and then analyzed with Annexin V-APC (BD Biosciences).” for “experiments.”
(§3) To assess how PKC inhibitors function in these cell populations, we tested whether they induced apoptosis. Thus, the mixed cell populations described above were treated with one of the inhibitors (Ro-31-8220) for three days and assessed with Annexin V, which marks apoptotic cells. 89% of NAMEC-Tom cells underwent apoptosis in comparison to 22.4% of the HMLE-GFP cells (FIG. 2E).

NAMEC-Tom cells = assay: Annexin V apoptosis in co-mixed culture, NAMEC-Tom gate; format: cell-based, human; conditions: co-mixed cells treated for three days
Protocol: as §2, with “experiments. To assess the fraction of cells undergoing apoptosis, cells were exposure to agents for three days without fresh media and then analyzed with Annexin V-APC (BD Biosciences).” for “experiments.”
as §3

NAMEC-Ras cells = assay: NAMEC-Ras subcutaneous xenograft, treatment from day of implantation; format: in vivo
Protocol: All research involving animals complied with protocols approved by the MIT Committee on Animal Care. For subcutaneous injections, cells resuspended in 100111 PBS containing 50% Matrigel were injected into both flanks female NOD-SCID mice except for studies involving the in vivo administration of chemical inhibitors where only one flank was implanted. The tumor incidence and weight were measured between 4 and 12 weeks post-injection.
In order to assess the therapeutic benefits of PKCα and SPHK1/2 inhibitors, NOD-SCID mice were xenografted with 5×10^4 NAMEC-Ras cells and treated for 30 days with a daily intraperitoneal dose of either DMSO control, PKCα Inh (5 mg/kg/d), SPHK1/2 Inh (5 mg/kg/d) or PKCα+SPHK1/2 inhibitors (2.5 mg/kg/d of each).

[5] = 5×10^4 cells, daily intraperitoneal 30 days, 5 mg/kg/d (combination 2.5 mg/kg/d of each), after 15 weeks

COc1cc2c(cc1OC)-c1[nH]nc(Nc3cccc(F)c3)c1C2 [PDGFR Inh IV]
effect on phospho-proteins of ERK signaling [1]: downregulation of B-Raf and C-Raf phosphorylation, and dampening ERK signaling | effect on PKCα phosphorylation [2]: reduced phosphorylation of PKCα | effect on phosphorylation of FRA1 (p-FRA1^S265): blocked the phosphorylation of FRA1 | which cell type is more sensitive / selected against [3]: NAMEC-Ras-Tom cells were more sensitive

PKC 20-28: PKCα inhibitor, EMD Biosciences 476480 (FARKGALRQ; pseudosubstrate peptide; UniProt P17252 20-28, looked up, fragment)
preferential depletion of NAMEC-Tom or HMLE-GFP cells in co-mixed culture [4]: diminished NAMEC-Tom cells relative to HMLE-GFP cells

CN(C)CCCn1cc(C2=C(c3c[nH]c4ccccc34)C(=O)NC2=O)c2ccccc21 [bisindolylmaleimide I]
preferential depletion of NAMEC-Tom or HMLE-GFP cells in co-mixed culture [4]: diminished NAMEC-Tom cells relative to HMLE-GFP cells | effect on phosphorylation of FRA1 (p-FRA1^S265): blocked the phosphorylation of FRA1 | total FRA1 (p-FRA1^S265): unchanged

COc1ccc2c(c1)CC[C@@H]1[C@@H]2CC[C@]2(C)[C@@H](NCCCCCCN3C(=O)C=CC3=O)CC[C@@H]12 [U73122]
effect on PKCα phosphorylation [2]: The upregulation of PKCα phosphorylation by PDGFC was blocked | total PKCα level [2]: unchanged | reduction of p-PKCα^S497 ([2]; by 60 min): 6.3 fold | reduction of p-PKCα^T638 ([2]; by 60 min): 4.2 fold | reduction of p-PKCα^S497 ([2]; within 30 min): 1.3 fold | reduction of p-PKCα^T638 ([2]; within 30 min): 3.1 fold

O=C(Nc1cccc(Nc2cc(Nc3cccc(C(F)(F)F)c3)ncn2)c1)C1CC1 [EGFR Inh]
which cell type is more sensitive / selected against [3]: HMLE-Ras-GFP were more sensitive

CC(=O)O[C@H]1C(=O)[C@@]2(C)[C@H]([C@H](OC(=O)c3ccccc3)[C@]3(O)C[C@H](OC(=O)[C@H](O)[C@@H](NC(=O)c4ccccc4)c4ccccc4)C(C)=C1C3(C)C)[C@]1(OC(C)=O)CO[C@@H]1C[C@@H]2O [paclitaxel]
preferential depletion of NAMEC-Tom or HMLE-GFP cells in co-mixed culture [4]: preferentially depleted the epithelial HMLE-GFP cells | sensitivity of GW-treated (differentiated) NAMECs (NAMECs): became sensitive | sensitivity of NAMECs relative to parental HMLE cells (NAMECs): resistant | resistance of NAMEC-Tom-Ras cells relative to HMLE-GFP-Ras cells [3]: 11.3 fold | apoptosis of HMLE-GFP cells (Annexin V) (HMLE-GFP cells): 89% | apoptosis of NAMEC-Tom cells (Annexin V) (NAMEC-Tom cells): 22.3%

CC#CC(=O)Nc1cc2c(Nc3ccc(F)c(Cl)c3)ncnc2cn1 [EGFR Inh III]
which cell type is more sensitive / selected against [3]: HMLE-Ras-GFP were more sensitive

CCOc1c2c(c(OCC)c3ccccc13)C(=O)N(c1ccc(CC(=O)NS(=O)(=O)c3ccccc3)cc1)C2 [GW627368]
protein changes accompanying differentiation (NAMECs; PGE2 inhibition): downregulation of p-PKCα and SPHK1/2 proteins | morphology of NAMECs (NAMECs; blocked PGE2 signaling): differentiated into an epithelial morphology within three weeks

CCCCCCCCc1cccc(NC(=O)[C@H](N)COP(=O)(O)O)c1 [VPC23019]
which cell type is more sensitive / selected against [3]: selected against NAMEC-Tom-Ras cells relative to HMLE-GFP-Ras cells in a dose-dependent manner

CN[C@@H]1C[C@H]2O[C@@](C)([C@@H]1OC)n1c3ccccc3c3c4c(c5c6ccccc6n2c5c31)C(=O)NC4 [staurosporine]
preferential depletion of NAMEC-Tom or HMLE-GFP cells in co-mixed culture [4]: preferentially depleted the epithelial HMLE-GFP cells | sensitivity of GW-treated (differentiated) NAMECs (NAMECs): became sensitive | sensitivity of NAMECs relative to parental HMLE cells (NAMECs): resistant | resistance of NAMEC-Tom-Ras cells relative to HMLE-GFP-Ras cells [3]: 32.8 fold | apoptosis of HMLE-GFP cells (Annexin V) (HMLE-GFP cells): 98% | apoptosis of NAMEC-Tom cells (Annexin V) (NAMEC-Tom cells): 29.7%

Oc1ccc(Nc2nc(-c3ccc(Cl)cc3)cs2)cc1 [SKI2]
sensitivity of GW-treated (differentiated) NAMECs (NAMECs): lost their sensitivity | sensitivity of NAMECs relative to parental HMLE cells (NAMECs): more sensitive

Cn1cc(C2=C(c3cn(CCCSC(=N)N)c4ccccc34)C(=O)NC2=O)c2ccccc21 [Ro-31-8220]
preferential depletion of NAMEC-Tom or HMLE-GFP cells in co-mixed culture [4]: diminished NAMEC-Tom cells relative to HMLE-GFP cells | mice that formed tumors (NAMEC-Ras cells; [5]): four of eight | tumor weight (NAMEC-Ras cells; [5]): ~0.16 g | tolerability in mice (NAMEC-Ras cells; 30 days of treatment followed by eight weeks of observation): well-tolerated in mice and had no adverse effects | effect on phosphorylation of FRA1 (p-FRA1^S265): blocked the phosphorylation of FRA1 | total FRA1 (p-FRA1^S265): unchanged | sensitivity of GW-treated (differentiated) NAMECs (NAMECs): lost their sensitivity | sensitivity of NAMECs relative to parental HMLE cells (NAMECs): more sensitive | apoptosis of HMLE-GFP cells (Annexin V) (HMLE-GFP cells): 22.4% | apoptosis of NAMEC-Tom cells (Annexin V) (NAMEC-Tom cells): 89%

COc1cccc2c1C(=O)c1c(O)c3c(c(O)c1C2=O)C[C@@](O)(C(=O)CO)C[C@@H]3O[C@H]1C[C@H](N)[C@H](O)[C@H](C)O1 [doxorubicin]
preferential depletion of NAMEC-Tom or HMLE-GFP cells in co-mixed culture [4]: preferentially depleted the epithelial HMLE-GFP cells
